The values that follow come from ChEMBL document CHEMBL5500367, “Improving tumor sensitivity by the introduction of an ester chain to triaryl derivatives targeting PD-1/PD-L1” (Eur J Med Chem, 2024).

The subject of one data set is NCI-H1299. The experiment in a line: Cytotoxicity against human NCI-H1299 cells assessed as inhibition of cell viability incubated for 72 hrs by MTT assay. The class given is functional, cell-based. As to conditions: NCI-H1299, 72 h. A general note: Tetrazolium dyes change colour on reduction, which living cells bring about.
The subject of data set [1] is A549. Briefly: Cytotoxicity against human A549 cells assessed as inhibition of cell viability incubated for 72 hrs by MTT assay. The class given is functional, cell-based. As to conditions: A549, 72 h.
Data set [2] concerns the target Programmed cell death protein 1/Programmed cell death 1 ligand 1 (Homo sapiens, UniProt Q9NZQ7). Briefly: Inhibition of PD-1/PD-L1 (unknown origin) interaction incubated for 15 mins by HTRF assay. The format is protein-complex assay. (In general: Time-resolved FRET reads energy transfer from a long-lived donor to a nearby acceptor.)
The subject of a further data set is HCT-116. Briefly: Cytotoxicity against human HCT-116 cells assessed as inhibition of cell viability incubated for 72 hrs by MTT assay. The class given is functional, cell-based. As to conditions: HCT-116, 72 h.
The next data set concerns MDA-MB-231. Briefly: Cytotoxicity against human MDA-MB-231 cells assessed as inhibition of cell viability incubated for 72 hrs by MTT assay. As to conditions: MDA-MB-231, 72 h. The format is functional, cell-based.
Data set [3] has as its system A549. Briefly: Cytotoxicity against human A549 cells assessed as decrease in cell viability at 2.5 to 10 uM incubated for 48 hrs by MTT assay. The format is functional, cell-based. As to conditions: dose 2.5-10 µM.
Data set [4] in a line: Cytotoxicity against human PBMC cells assessed as decrease in cell viability at 2.5 to 10 uM incubated for 48 hrs by MTT assay. The format is toxicity, cell-based. The settings on record: dose 2.5-10 µM.
In data set [5] the target is Programmed cell death 1 ligand 1 (Homo sapiens, UniProt Q9NZQ7).
Description: Binding affinity to CM5 chip immobilized recombinant human PD-L1 assessed as association constant by SPR analysis
Data set [6] can be described thus: Metabolic stability in human liver microsomes assessed as intrinsic clearance by LC-MS/MS analysis. The format is ADME, Microsome. (Liver microsomes are a subcellular fraction often used to study metabolism.)
In data set [7] the test system is 4T1. Briefly: Antitumor activity against mouse 4T1 cells allografted in BALB/c mouse at 20 mg/kg, ip treated for 21 days consecutively relative to control. The format is functional. As to conditions: 4T1, 504 h, time 21 day, read-out: TGI.
The nature of data set [8]: Metabolic stability in human liver microsomes assessed as half life by LC-MS/MS analysis. The format is ADME, Microsome.
The subject of data set [9] is 4T1. Briefly: Antitumor activity against mouse 4T1 cells allografted in BALB/c mouse at 10 mg/kg, ip treated for 21 days consecutively relative to control. The class given is functional. The settings on record: 4T1, 504 h, time 21 day, read-out: TGI.
Data set [10] in a line: Toxicity in BALB/c mouse allografted with mouse 4T1 cells assessed as animal death at 10 to 20 mg/kg, ip treated for 21 days consecutively. The class given is organism-based. The settings on record: in vivo, 504 h, dose 10-20 mg/kg, time 21 day.
The test system of data set [11] is 4T1. Briefly: Antitumor activity against mouse 4T1 cells allografted in BALB/c mouse assessed as increase in CD8+ cell infiltration administered intraperitoneally treated for 21 days consecutively by IHC analysis. The class given is functional, cell-based. As to conditions: dose 10-20 mg/kg, route ip, time 21.0 day.
The nature of data set [12]: Toxicity in BALB/c mouse allografted with mouse 4T1 cells assessed as body weight loss at 10 to 20 mg/kg, ip treated for 21 days consecutively. The class given is organism-based. As to conditions: in vivo, 504 h, dose 10-20 mg/kg, time 21 day.
Data set [13] in a line: Toxicity in BALB/c mouse allografted with mouse 4T1 cells assessed as drug tolerance at 10 to 20 mg/kg, ip treated for 21 days consecutively. The format is organism-based. As to conditions: in vivo, 504 h, dose 10-20 mg/kg, time 21 day.
Data set [14] relates to A549. Briefly: Cytotoxicity against human A549 cells assessed as inhibition of cell viability at 10 uM preincubated with A549 cells for 2 hrs followed by co-culture with CD3/CD28/CD2-activated PBMC cells for 48 hrs by MTT assay relative to control. The format is functional. As to conditions: time 50 hrs.

Active and inactive are the calls of the source. The rule behind the calls is not given here. A value given as a limit tells only on which side of the number the result lay.

Programmed cell death 1 ligand 1, sequence (Q9NZQ7 whole entry): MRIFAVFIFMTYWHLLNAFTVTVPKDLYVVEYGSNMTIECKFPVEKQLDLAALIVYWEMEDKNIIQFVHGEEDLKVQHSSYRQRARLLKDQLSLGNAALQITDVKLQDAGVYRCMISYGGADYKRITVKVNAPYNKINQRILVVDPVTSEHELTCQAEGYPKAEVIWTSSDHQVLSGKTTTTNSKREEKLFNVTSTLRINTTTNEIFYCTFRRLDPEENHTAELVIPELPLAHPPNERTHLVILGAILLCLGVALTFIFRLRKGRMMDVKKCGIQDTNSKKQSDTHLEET
Programmed cell death protein 1/Programmed cell death 1 ligand 1, sequence (Q15116 whole entry): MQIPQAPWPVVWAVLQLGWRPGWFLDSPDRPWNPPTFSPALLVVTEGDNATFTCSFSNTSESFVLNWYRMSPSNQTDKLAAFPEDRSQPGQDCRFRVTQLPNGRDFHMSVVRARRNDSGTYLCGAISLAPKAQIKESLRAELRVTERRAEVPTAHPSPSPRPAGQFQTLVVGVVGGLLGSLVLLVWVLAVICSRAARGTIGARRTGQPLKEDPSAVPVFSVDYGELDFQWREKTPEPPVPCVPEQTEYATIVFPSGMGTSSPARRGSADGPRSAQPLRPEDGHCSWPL
Programmed cell death protein 1/Programmed cell death 1 ligand 1, sequence (Q9NZQ7 whole entry): as the sequence (Q9NZQ7 whole entry) above

In general, IC50 refers to the point on the concentration scale where inhibition reaches its midpoint. On to `COc1cc(OC(=O)c2cccc(-c3ccccc3)c2C)ccc1CNC(CO)CO`, for which the IC50 is 11400 nM with NCI-H1299; 18800 nM with A549 [1]; 27.1 nM in [2]; 12200 nM in the data set with HCT-116; greater than 20000 nM in the data set on MDA-MB-231.
`Cc1cc(OC(=O)c2cccc(-c3ccccc3)c2C)cc(OCc2cccc(C#N)c2)c1CN[C@@H](CO)C(=O)O` showed an IC50 in data set [2] of 64.3 nM.
Same read-out and setting: in the case of `CC(=O)NCCNCc1ccc(OC(=O)c2cccc(-c3ccccc3)c2C)cc1OCc1cccc(C#N)c1` it was 506 nM.
Take `Cc1cc(OC(=O)c2cccc(-c3ccccc3)c2C)ccc1CN[C@@H](CO)C(=O)O`: the result in the data set on A549 [3] was inactive. In data set [4], the Activity entry is “Non-Toxic”. Besides, the IC50 in the data set with NCI-H1299 is greater than 20000 nM; in the data set with A549 [1] it was greater than 20000 nM; in data set [2], 2.25 nM; in the data set on HCT-116 it was greater than 20000 nM; in the data set on MDA-MB-231, greater than 20000 nM. Besides, the Ka in data set [5] was 5.31 10^5/M/s.
Regarding `COc1cc(OC(=O)c2cccc(-c3ccccc3)c2C)ccc1CNCCNC(C)=O`, in data set [2], the midpoint of inhibition, the IC50, lay at 893 nM.
In the case of `Cc1c(COc2cc(OCc3cccc(C#N)c3)c(CN3C[C@H](O)C[C@@H]3C(=O)O)cc2Cl)cccc1-c1ccc2c(c1)OCCO2`, the result in the data set with A549 [3] was inactive. The Activity result in [4] was “Non-Toxic”.
`COc1cc(OC(=O)c2cccc(-c3ccccc3)c2C)ccc1CNCCN(C)C` returned an IC50 in data set [2] of 358 nM.
The compound `COc1cc(OC(=O)c2cccc(-c3ccccc3)c2C)ccc1CN1C[C@H](O)C[C@H]1C(=O)O` came in with an IC50 in [2] of 113 nM.
On to `Cc1c(C(=O)Oc2ccc(CNC(CO)(CO)CO)c(Br)c2)cccc1-c1ccccc1`, for which, in the data set on A549 [3], the result was inactive. For the same compound, in data set [4], the Activity result is “Non-Toxic”. Besides, the IC50 in the data set on NCI-H1299 was 18700 nM; in the data set on A549 [1], greater than 20000 nM; in [2], 2.62 nM; in the data set on HCT-116, greater than 20000 nM; in the data set on MDA-MB-231 it was greater than 20000 nM. For the same compound, in data set [5], the Ka is 1.16 10^5/M/s.
Consider `Cc1cc(OC(=O)c2cccc(-c3ccccc3)c2C)ccc1CNC(CO)(CO)CO`, for which the IC50 was 16500 nM in the data set with NCI-H1299; 18600 nM in the data set on A549 [1]; 1.98 nM in data set [2]; 12200 nM in the data set on HCT-116; 18300 nM in the data set with MDA-MB-231. The Ka in data set [5] is 4.37 10^5/M/s.
In the case of `Cc1cc(OC(=O)c2cccc(-c3ccccc3)c2C)cc(OCc2cccc(C#N)c2)c1CNCCO`, the midpoint of inhibition in data set [2], the IC50, lay at 271 nM.
Regarding `COc1cc(OCc2cccc(-c3ccccc3)c2C)cc(OC)c1CN1CCCC[C@H]1C(=O)O`, the result in the data set on A549 [3] was inactive. Also, in data set [6], the CLH amounted to 216 µL/min/mg. Moreover, the Activity result in data set [4] is “Non-Toxic”. Moreover, the Ka in [5] was 1.17 10^5/M/s. Besides, the inhibition in vivo at 20 mg/kg with 4T1 [7] turned out to be 33.1%. Besides, in data set [8], the t1/2 is on record as 14.2 min.
Turning to `Cc1cc(OC(=O)c2cccc(-c3ccccc3)c2C)cc(OCc2cccc(C#N)c2)c1CNC[C@H](O)CO`, in data set [2], half-maximal inhibition (IC50) was put at 254 nM.
`Cc1c(C(=O)Oc2ccc(CN[C@H](CO)C(=O)O)cc2)cccc1-c1ccccc1` registered an IC50 in data set [2] of 55.1 nM.
The same measure, in the same setting: with `Cc1cc(OC(=O)c2cccc(-c3ccccc3)c2C)cc(OCc2cccc(C#N)c2)c1CN[C@H](CO)C(=O)O` the figure was 39.5 nM.
Same read-out and setting: with `COc1cc(OC(=O)c2cccc(-c3ccccc3)c2C)ccc1CNCCCO` the figure was greater than 1000 nM.
The same measure, in the same setting: with `Cc1c(C(=O)Oc2ccc(CN[C@@H](CO)C(=O)O)c(OCc3cccc(C#N)c3)c2)cccc1-c1ccccc1` the figure was greater than 1000 nM; with `COc1cc(OC(=O)c2cccc(-c3ccccc3)c2C)ccc1CN1CCCC[C@H]1C(=O)O`, greater than 1000 nM; with `COc1cc(OC(=O)c2cccc(-c3ccccc3)c2C)ccc1CNCCO`, 263 nM.
Take `COc1cc(OC(=O)c2cccc(-c3ccccc3)c2C)cc(OC)c1CNCC(O)CO` (configuration not stated): in data set [2], the IC50 amounted to 228 nM.
In data set [2], `Cc1c(C(=O)Oc2ccc(CN[C@H](CO)C(=O)O)c(OCc3cccc(C#N)c3)c2)cccc1-c1ccccc1` showed an IC50 of 24 nM.
`Cc1c(C(=O)Oc2ccc(CNCCO)c(OCc3cccc(C#N)c3)c2)cccc1-c1ccccc1`: the result in the data set with A549 [3] was inactive. The Activity entry in data set [4] was “Non-Toxic”. Moreover, the 50% inhibitory concentration (IC50) in the data set on NCI-H1299 is 7400 nM; in the data set with A549 [1], 12600 nM; in data set [2], 13.2 nM; in the data set with HCT-116 it was 7350 nM; with MDA-MB-231, 7680 nM.
For `COc1cc(OC(=O)c2cccc(-c3ccccc3)c2C)ccc1CN1CCC(O)CC1`, inhibition in [2] was half-maximal at 78.6 nM (IC50).
Still for that read-out and setting: in the case of `COc1cc(OC(=O)c2cccc(-c3ccccc3)c2C)ccc1CNC(CO)(CO)CO` it was 72.4 nM; in that of `Cc1c(C(=O)Oc2ccc(CN[C@@H](CO)C(=O)O)c(OCc3cccc(C#N)c3)c2C)cccc1-c1ccccc1`, 231 nM.
Regarding `Cc1c(C(=O)Oc2cc(OCc3cccc(C#N)c3)c(CNC(CO)CO)cc2Cl)cccc1-c1ccccc1`, inhibition in data set [2] was half-maximal at 118 nM (IC50).
Consider `COc1cc(OC(=O)c2cccc(-c3ccccc3)c2C)ccc1CN[C@@H](CO)C(=O)O`, for which the result in the data set with A549 [3] was inactive. Besides, the Activity entry in data set [4] is on record as “Non-Toxic”. Besides, the IC50 in the data set with NCI-H1299 is greater than 20000 nM; in the data set on A549 [1], greater than 20000 nM; in data set [2], 27.3 nM; in the data set on HCT-116, greater than 20000 nM; in the data set on MDA-MB-231, greater than 20000 nM.
For the compound `COc1cc(OC(=O)c2cccc(-c3ccccc3)c2C)ccc1CNC[C@H](O)CO`, the IC50 in [2] stood at 381 nM.
Consider `Cc1c(C(=O)Oc2ccc(CN[C@@H](CO)C(=O)O)cc2)cccc1-c1ccccc1`, for which the result in the data set on A549 [3] was inactive. In data set [4], the Activity entry is “Non-Toxic”. In addition, the IC50 is greater than 20000 nM with NCI-H1299; greater than 20000 nM in the data set on A549 [1]; 17.5 nM in data set [2]; greater than 20000 nM in the data set with HCT-116; greater than 20000 nM in the data set on MDA-MB-231.
In data set [2], `Cc1c(C(=O)Oc2ccc(CNC(CO)(CO)CO)c(OCc3cccc(C#N)c3)c2C)cccc1-c1ccccc1` had an IC50 of 109 nM.
Regarding `Cc1cc(OC(=O)c2cccc(-c3ccccc3)c2C)cc(OCc2cccc(C#N)c2)c1CNC(CO)(CO)CO`, in [2], it took 133 nM to reach half-maximal inhibition (IC50).
As to `Cc1c(C(=O)Oc2ccc(CNC(CO)(CO)CO)cc2)cccc1-c1ccccc1`, the IC50 in data set [2] was 25.6 nM.
One may read the inhibition as the share of the control response that was lost under treatment. On to `Cc1c(C(=O)Oc2ccc(CN3C[C@H](O)C[C@H]3C(=O)O)c(OCc3cccc(C#N)c3)c2)cccc1-c1ccccc1`, for which the result in the data set on A549 [3] was inactive. The inhibition in vivo at 10 mg/kg with 4T1 [9] is 49.4%. Moreover, the CLH in data set [6] came to 100 µL/min/mg. For the same compound, the Activity result in data set [4] is “Non-Toxic”; in [10], “Non-Toxic”; in the data set on 4T1 [11], “Dose-Dependent Effect”; in data set [12], “Non-Toxic”; in [13] it was “Non-Toxic”. The IC50 was greater than 20000 nM in the data set with NCI-H1299; greater than 20000 nM with A549 [1]; 1.21 nM in [2]; greater than 20000 nM with HCT-116; greater than 20000 nM in the data set on MDA-MB-231. Also, the Ka in data set [5] is 7.9 10^5/M/s. Further, in the data set with 4T1 [7], the inhibition in vivo at 20 mg/kg turned out to be 67.8%. Further, the inhibition at 10 µM in the data set with A549 [14] turned out to be 76.5%. The t1/2 in data set [8] stood at 18.8 min.
Consider `COc1cc(OC(=O)c2cccc(-c3ccccc3)c2C)ccc1CNC[C@@H](O)CO`, for which half-maximal inhibition in data set [2] (IC50) was put at 302 nM.
